Data taken from paper PMC4110683 (Chemistry and physics of lipids, 2013).
Converted amounts (≈) assume the structure as drawn. Read-outs that look alike come from different tables or passages of the source.

What was measured:
[1] = system: M. smegmatis mc^2 155; conditions: ref Morbidoni et al., 2006; cited from earlier work
[2] = system: Bacteroides fragilis; conditions: ref Konthikamee et al., 1982; cited from earlier work
[3] = system: P. falciparum K1; assay: Toxicity to P. falciparum K1 strain; assay type: cell-based, Plasmodium falciparum; conditions: Plasmodium falciparum, K1, read-out: IC50 P. falciparum K1
[4] = target: T1, hTopIB (Homo sapiens, UniProt P11387); conditions: read-out: hTopIB EC50; relaxation activity; ref Carballeira et al., 2012; cited from earlier work
T1 sequence (P11387 1-765): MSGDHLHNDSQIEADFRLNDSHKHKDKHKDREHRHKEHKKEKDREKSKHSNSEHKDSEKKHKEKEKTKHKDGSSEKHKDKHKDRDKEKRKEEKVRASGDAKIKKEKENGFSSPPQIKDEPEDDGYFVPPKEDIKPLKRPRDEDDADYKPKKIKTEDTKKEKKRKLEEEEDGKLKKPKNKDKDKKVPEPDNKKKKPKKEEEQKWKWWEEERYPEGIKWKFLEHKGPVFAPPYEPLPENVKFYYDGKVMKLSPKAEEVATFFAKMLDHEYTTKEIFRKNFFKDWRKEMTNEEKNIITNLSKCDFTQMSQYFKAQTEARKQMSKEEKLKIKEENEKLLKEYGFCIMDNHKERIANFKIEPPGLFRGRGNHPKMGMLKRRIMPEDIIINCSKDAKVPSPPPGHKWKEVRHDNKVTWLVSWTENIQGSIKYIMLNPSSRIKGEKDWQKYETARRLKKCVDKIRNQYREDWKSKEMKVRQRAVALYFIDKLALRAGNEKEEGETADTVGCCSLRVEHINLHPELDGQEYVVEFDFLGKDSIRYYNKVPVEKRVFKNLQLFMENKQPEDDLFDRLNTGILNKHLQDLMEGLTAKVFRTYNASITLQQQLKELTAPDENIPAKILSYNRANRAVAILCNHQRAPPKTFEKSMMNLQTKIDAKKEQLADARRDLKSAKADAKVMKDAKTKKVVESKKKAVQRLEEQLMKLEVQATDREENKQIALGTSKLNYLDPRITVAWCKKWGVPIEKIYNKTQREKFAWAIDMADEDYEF

[5] = target: PfFabG (Plasmodium falciparum, UniProt Q8I2S7); assay: biochemical
[6] = system: Neisseria flava; conditions: ref Konthikamee et al., 1982; cited from earlier work
[7] = system: Leishmania infantum promastigotes; conditions: read-out: IC50 Leishmania infantum promastigotes; ref Carballeira et al., 2012; cited from earlier work
[8] = system: Mycobacterium tuberculosis H37Rv; conditions: ref Morbidoni et al., 2006; cited from earlier work
[9] = system: Pseudomonas aeruginosa; conditions: in words; ref Konthikamee et al., 1982; cited from earlier work
[10] = target: T1, hTopIB; assay: Inhibition of relaxation activity of hTopIB; assay type: biochemical
[11] = system: LdTopIB; conditions: ref Carballeira et al., cited from earlier work
[12] = system: InhA, the enoyl-ACP reductase; conditions: in words; ref Morbidoni et al., 2006; cited from earlier work
[13] = system: L. donovani promastigotes; conditions: cited from earlier work; for IC50: read-out: IC50 L. donovani promastigotes, 2012; for IC50 / EC50 L. donovani promastigotes / Effectiveness towards L. donovani: ref Carballeira et al.; for EC50 L. donovani promastigotes / Effectiveness towards L. donovani: 2009; for Motility of L. donovani promastigotes: at levels of 100 μg/mL, ref Cunningham et al., 1972; for Motility of L. donovani promastigotes / Effectiveness towards L. donovani: in words; for MIC L. donovani promastigotes: ref Chaudhuri et al., 1986
[14] = system: hepatoma 7288 (HTC) cells; conditions: ref Upreti et al., 1981; cited from earlier work
[15] = system: Escherichia coli; conditions: in words; ref Konthikamee et al., 1982; cited from earlier work
[16] = system: BALB/c murine macrophages; conditions: read-out: Murine macrophages BALB/c IC50; ref Carballeira et al., 2012; cited from earlier work
[17] = system: Staphylococcus aureus; conditions: ref Konthikamee et al., 1982; cited from earlier work
[18] = target: T2, PfFabZ (Plasmodium falciparum, UniProt Q965D7); conditions: with respect to the substrate; ref Tasdemir et al., 2010; cited from earlier work
T2 sequence (Q965D7 19-230): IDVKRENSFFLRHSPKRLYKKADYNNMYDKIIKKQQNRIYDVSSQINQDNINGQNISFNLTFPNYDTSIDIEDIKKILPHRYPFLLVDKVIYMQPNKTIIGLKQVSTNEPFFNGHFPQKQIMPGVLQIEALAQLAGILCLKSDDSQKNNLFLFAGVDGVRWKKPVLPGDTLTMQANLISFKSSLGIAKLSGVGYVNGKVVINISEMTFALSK

[19] = target: T3, PfFabI (Plasmodium falciparum, UniProt Q9BH77); conditions: with respect to crotonyl-CoA and the cofactor NADH; ref Tasdemir et al., 2010; cited from earlier work
T3 sequence (Q9BH77 22-432): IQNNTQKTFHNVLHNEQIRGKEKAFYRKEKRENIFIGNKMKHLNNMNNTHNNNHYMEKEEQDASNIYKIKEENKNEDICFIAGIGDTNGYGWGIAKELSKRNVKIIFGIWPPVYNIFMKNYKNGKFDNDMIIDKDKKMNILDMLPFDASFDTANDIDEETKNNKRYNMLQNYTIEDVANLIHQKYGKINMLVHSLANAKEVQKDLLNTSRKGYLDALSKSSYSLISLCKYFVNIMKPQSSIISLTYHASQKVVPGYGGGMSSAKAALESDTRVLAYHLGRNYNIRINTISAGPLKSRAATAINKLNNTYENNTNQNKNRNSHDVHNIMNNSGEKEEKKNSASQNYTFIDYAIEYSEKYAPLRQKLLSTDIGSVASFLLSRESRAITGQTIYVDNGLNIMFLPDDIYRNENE

[20] = target: T3, PfFabI; assay: Inhibition of PfFabI; assay type: biochemical
[21] = target: T2, PfFabZ; assay: Inhibition of PfFabZ; assay type: biochemical
[22] = system: FCR3 strain of P. falciparum; conditions: ref Krugliak et al., 1995; cited from earlier work
[23] = system: P. falciparum; conditions: in words; ref Kumaratilake et al., 1992; 1997; cited from earlier work
[24] = system: P. falciparum K1; conditions: ref Suksamrarn et al., 2005; cited from earlier work
[25] = read-out: LdTopIB EC50, relaxation activity, 2012

CCCCCCCCCCCCCCCCCCCC#CC(=O)O [2-Docosynoic acid]
MIC against M. smegmatis mc^2 155 [1]: >300 µM

CCCCCCCCCC#CC(=O)O [2-Dodecynoic acid]
MIC against M. smegmatis mc^2 155 [1]: >300 µM

CCCCCCCCCCCCCCCCCC#CC(=O)O [2-Eicosynoic acid]
MIC against M. smegmatis mc^2 155 [1]: >300 µM

CCCCCCCCCCCCCC#CC(=O)O [2-HDA, 2-hexadecynoic acid]
MIC Bacteroides fragilis [2]: 21.4 µM (≈ 5.4 µg/mL)
IC50 [3]: 41.2 µM
EC50 [4]: > 100 µM
IC50 ([5]; read-out: IC50 PfFabG, Carballeira and Tasdemir, unpublished data): 13.9 µM
MIC Neisseria flava [6]: 21.4 µM (≈ 5.4 µg/mL)
IC50 [7]: 14.9 µM
MIC against Mycobacterium tuberculosis H37Rv [8]: 20 to 25 µM
Effectiveness against Pseudomonas aeruginosa [9]: not effective
IC50 [10]: 361 ± 1 µM
EC50 [11, 25]: 28.7 ± 1.3 µM
Inhibition of InhA [12]: able to inhibit
IC50 [13]: 17.8 µM
LD50, growth of cultured hepatoma 7288 (HTC) cells [14]: 35 to 85 µM
Effectiveness against Escherichia coli [15]: not effective
IC50 [16]: > 100 µM
MIC Staphylococcus aureus [17]: 21.4 µM (≈ 5.4 µg/mL)
Mode of inhibition of PfFabZ [18]: competitively inhibit
MIC against M. smegmatis mc^2 155 [1]: 10 µM (≈ 2.52 µg/mL)
Mode of inhibition of PfFabI [19]: non-competitive
IC50 ([20]; read-out: IC50 PfFabI, Carballeira and Tasdemir, unpublished data): 1.5 µM

CCCCCCCCCCCCCCCCC#CC(=O)O [2-Nonadecynoic acid]
MIC against Mycobacterium tuberculosis H37Rv [8]: 20 to 25 µM
MIC against M. smegmatis mc^2 155 [1]: 35 µM (≈ 10.3 µg/mL)

CCCCCCCCCCCC#CC(=O)O [2-TDA, 2-tetradecynoic acid]
IC50 [3]: 122 µM
EC50 [4]: > 100 µM
IC50 [5]: 24.5 µM
EC50 [11, 25]: 67.8 ± 1.1 µM
IC50 [13]: 24.7 µM
IC50 [21]: 15.6 µM
IC50 [16]: > 100 µM
MIC against M. smegmatis mc^2 155 [1]: 266 µM (≈ 59.7 µg/mL)
IC50 [20]: 5.3 µM

CCCCCCCCCCCCC#CCC(=O)O [3-Hexadecynoic acid]
MIC against M. smegmatis mc^2 155 [1]: 20 µM (≈ 5.05 µg/mL)

CCCCCCCCCCCCCCC#CCC(=O)O [3-Octadecynoic acid]
MIC against M. smegmatis mc^2 155 [1]: 36 µM (≈ 10.1 µg/mL)

CCCCCCCCCCCC#CCCC(=O)O [4-Hexadecynoic acid]
MIC against M. smegmatis mc^2 155 [1]: 30 µM (≈ 7.57 µg/mL)

CCCCCCCCCCCCCC#CCCC(=O)O [4-Octadecynoic acid]
MIC against M. smegmatis mc^2 155 [1]: >300 µM

CCCCCCCCCCC#CCCCC(=O)O [5-Hexadecynoic acid]
MIC against M. smegmatis mc^2 155 [1]: 80 µM (≈ 20.2 µg/mL)

CCCCCCCCCCCCC#CCCCC(=O)O [5-Octadecynoic acid]
MIC against M. smegmatis mc^2 155 [1]: 360 µM (≈ 101 µg/mL)

CCCCCCCCCCC#CCCCCC(=O)O [6-heptadecynoic, 6-heptadecynoic acid]
EC50 L. donovani promastigotes [13]: 1 to 6 µg/mL

CCCCCCCCCCCCCC#CCCCCC(=O)O [6-icosynoic acid]
EC50 ([11]; read-out: EC50 LdTopIB, 2009): 36 to 49 µM
EC50 L. donovani promastigotes [13]: 1 to 6 µg/mL

CCCCCCCCCCCCCCCC(=O)O [16:0, hexadecanoic acid, reference compound]
IC50 [3]: > 100 µM
IC50 [5]: > 100 µM
Motility of L. donovani promastigotes [13]: inhibited the motility
IC50 [21]: > 100 µM
IC50 [20]: > 100 µM

CC[C@@]1(O)C(=O)OCc2c1cc1n(c2=O)Cc2cc3ccccc3nc2-1 [CPT, camptothecin, reference compound]
EC50 [11, 25]: 0.67 ± 0.08 µM
IC50 [16]: 0.62 ± 0.13 µM

CCCCC/C=C\C/C=C\CCCCCCCC(=O)O [linoleic acid]
IC50 killing FCR3 strain of P. falciparum [22]: 76 µg/mL

CC/C=C\C/C=C\C/C=C\CCCCCCCC(=O)O [linolenic acid]
IC50 killing FCR3 strain of P. falciparum [22]: 92 µg/mL

CCCCCCCCCC(=O)O [n-decanoic acid]
Motility of L. donovani promastigotes [13]: inhibited the motility

CCCCCCCCCCCC(=O)O [n-dodecanoic acid]
Motility of L. donovani promastigotes [13]: inhibited the motility

CCCCCCCCCCCCCCCCCCCC(=O)O [n-eicosanoic acid, reference compound]
Effectiveness towards L. donovani [13]: not effective

CCCCCCCCCCCCCCCCC(=O)O [n-heptadecanoic acid, reference compound]
Effectiveness towards L. donovani [13]: not effective

CCCCCCCCCCCCCCCCCC(=O)O [octadecanoic acid]
MIC L. donovani promastigotes [13]: 1390 µM (≈ 395 µg/mL)

CCCCCCCC/C=C\CCCCCCCC(=O)O [oleic acid, 9-cis-Octadecenoic acid, reference compound]
Parasite killing of P. falciparum [23]: negligible parasite killing
IC50 killing FCR3 strain of P. falciparum [22]: 23 µg/mL
Motility of L. donovani promastigotes [13]: no effect
MIC L. donovani promastigotes [13]: 90 µM (≈ 25.4 µg/mL)

C=CCCC#CCCCCCCCCCCCC(=O)O [scleropyric acid]
IC50 K1 multidrug-resistant P. falciparum [24]: 7.2 µg/mL (≈ 25.9 µM)
